Measured values as given in patent publication US20260242839A1, “GLYCOSIDE PRODUCT BIOSYNTHESIS AND RECOVERY” (Manus Bio Inc., priority 2023, published 2026).

B1: SEQ ID NO: 73: HvUGT_B3 (Hordeum vulgare subsp. Vulgare) (protein)
chain: MAEANDGGKMHVVMLPWLAFGHVLPFTEFAKRVARQGHRVTLLSAPRNTRRLIDIPPGLAGLIRVVHVPLPRVDGLPEHAEATIDLPSDHLRPCLRRAFDAAFERELSRLLQEEAKPDWVLVDYASYWAPTAAARHGVPCAFLSLFGAAALSFFGTPETLLGIGRHAKTEPAHLTVVPEYVPFPTTVAYRGYEARELFEPGMVPDDSGVSEGYRFAKTIEGCQLVGIRSSSEFEPEWLRLLGELYRKPVIPVGLFPPAPQDDVAGHEATLRWLDGQAPSSVVYAAFGSEVKLTGAQLQRIALGLEASGLPFIWAFRAPTSTETGAASGGLPEGFEERLAGRGVVCRGWVPQVKFLAHASVGGFLTHAGWNSIAEGLAHGVRLVLLPLVFEQGLNARNIVDKNIGVEVARDEQDGSFAAGDIAAALRRVMVEDEGEGFGAKVKELAKVFGDDEVNDQCVREFLMHLSDHSKKNQGQD
modifications: Hordeum vulgare

Assays:
[1] = maximum solubility of RebM in fermentation broth; type: physicochemical
Procedure: Fermentation broth was held at a constant temperature of 70° C. and subjected to different treatments as described in Table 7. RebM was slowly added with constant stirring to determine the maximum solubility of RebM.

[2] = estimated; Prakash et al. 2014; cited from earlier work
[3] = system: Mog. IIE or Mog. IE; experiment: branched glycosylation reactions by cells expressing UGT enzymes; type: cell-based, E. coli; conditions: Mog. IIE or Mog. IE fed; 37° C., 48 hr; LC-MS/MS
Procedure: Mog. IIE or Mog. IE was fed to cells expressing various UGT enzymes. Reactions were incubated at 37° C. for 48 hr. Products were quantified by LC-MS/MS with authentic standards of each compound. “Indirect” evidence means that consumption of substrate was observed.

[4] = system: Mog. I-E; experiment: production of Mog. II-A2 from Mog. I-E; type: cell-based, E. coli; conditions: 37° C., 48 hr; FIG. 20
Procedure: II-A2. Mog. I-E was fed in vitro. In the experiment, engineered E. coli strains (chassis strain) expressing UGT enzyme SEQ ID NO: 73 were incubated at 37° C. for 48 hr. Products were quantified by LC-MS/MS with authentic standards of each compound. […] IE to Mog. II-A2.

Molecule	RebM solubility ([1]; pH 3.5, 70.8 ° C., no small molecule enhancer) [mg/mL]	RebM solubility ([1]; pH 7, 70.8 ° C., Glycerol 0.5 wt %) [mg/mL]	RebM solubility ([1]; pH 7, 70.8 ° C., no small molecule enhancer) [mg/mL]	RebM solubility ([1]; pH 11.6, 70.8 ° C., 1,3-Propanediol 0.5 wt %) [mg/mL]	RebM solubility ([1]; pH 11.6, 70.8 ° C., Glycerol 0.5 wt %) [mg/mL]	times more potent than sucrose [2]	C3 1-2 [3]	C3 1-6 [3]	C24 1-2 [3]	C24 1-6 [3]	bioconversion of Mog. IE to Mog. II-A2 [4]
C=C1C[C@@]23CC[C@H]4[C@@](C)(CCC[C@@]4(C)C(=O)O[C@@H]4O[C@H](CO)[C@@H](O)[C@H](O[C@@H]5O[C@H](CO)[C@@H](O)[C@H](O)[C@H]5O)[C@H]4O[C@@H]4O[C@H](CO)[C@@H](O)[C@H](O)[C@H]4O)[C@@H]2CC[C@]1(O[C@@H]1O[C@H](CO)[C@@H](O)[C@H](O[C@@H]2O[C@H](CO)[C@@H](O)[C@H](O)[C@H]2O)[C@H]1O[C@@H]1O[C@H](CO)[C@@H](O)[C@H](O)[C@H]1O)C3 [RebM, rebaudioside M]	68.9	119.0	29.9	151.3	151.3	200-350 times					
B1							No	Yes	No	Yes	able to catalyze bioconversion of Mog. IE to Mog. II-A2
